Data taken from US10294202B2, “Pyrrolidinones as herbicides” (FMC Corporation, priority 2013, dated 2019).

Key:
[1] = tested on: giant foxtail; assay: Test A pre-/postemergence herbicide test; assay type: in vivo, Setaria faberii
In short: (§1)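 Greenhouse pot test with pre- and postemergence application of surfactant-containing solvent formulations. Postemergence plants were 2–10 cm, one- to two-leaf stage. Response scored visually after ~10 days, 0 (no effect) to 100 (complete control).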

[2] = tested on: blackgrass; assay: Test A postemergence herbicide test; assay type: in vivo, Alopecurus myosuroides
In short: (§2)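 Plants at the one- to two-leaf stage, 2–10 cm tall, grown in loam/sand pots, received postemergence sprays of the test chemicals. After about 10 days in the greenhouse, injury was scored visually against untreated controls on a 0–100 scale (0 none, 100 complete control).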

[3] = tested on: wheat; assay: Test A pre-/postemergence herbicide test; assay type: in vivo, Triticum aestivum; conditions: Postemergence
In short: as §1

[4] = tested on: ryegrass, Italian; assay: Test A pre-/postemergence herbicide test; assay type: in vivo, Lolium multiflorum
In short: as §1

[5] = tested on: pigweed; assay: Test A pre-/postemergence herbicide test; assay type: in vivo, Amaranthus retroflexus
In short: as §1

[6] = tested on: galium; assay: Test A postemergence herbicide test; assay type: in vivo, Galium aparine
In short: as §2

[7] = tested on: kochia; assay: Test A pre-/postemergence herbicide test; assay type: in vivo, Kochia scoparia
In short: as §1

[8] = tested on: barnyardgrass; assay: Test A pre-/postemergence herbicide test; assay type: in vivo, Echinochloa crus-galli
In short: as §1

[9] = tested on: barnyardgrass; assay: Test B flooded paddy test; assay type: in vivo, Echinochloa crus-galli; conditions: Flood, scale of 0 to 100 where 0 is no effect and 100 is complete control
In short: (§3)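 Treatment was made at the 2-leaf stage by dosing the standing floodwater, kept 3 cm above soil level for the whole test. Greenhouse exposure lasted 13 to 15 days. Response is a visual percent rating relative to controls, where a dash indicates no test result.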

[10] = tested on: sedge, umbrella; assay: Test B flooded paddy test; assay type: in vivo, Cyperus difformis; conditions: Flood, scale of 0 to 100 where 0 is no effect and 100 is complete control
In short: as §3

[11] = tested on: corn; assay: Test A pre-/postemergence herbicide test; assay type: in vivo, Zea mays; conditions: Postemergence
In short: as §1

[12] = tested on: ragweed; assay: Test A pre-/postemergence herbicide test; assay type: in vivo, Ambrosia elatior
In short: as §1

[13] = tested on: rice; assay: Test B flooded paddy test; assay type: in vivo, Oryza sativa; conditions: Flood, scale of 0 to 100 where 0 is no effect and 100 is complete control
In short: as §3

[14] = tested on: ducksalad; assay: Test B flooded paddy test; assay type: in vivo, Heteranthera limosa; conditions: Flood, scale of 0 to 100 where 0 is no effect and 100 is complete control
In short: as §3

[15] = 125 g ai/ha, visual rating, 0 to 100 scale, 0 no effect, 100 complete control, approximately 10 days, preemergence
[16] = Postemergence, 125 g ai/ha, 0 to 100 scale, 0 is no effect, 100 is complete control
[17] = preemergence, 500 g ai/ha, 0 to 100 scale, 0 is no effect and 100 is complete control
[18] = 125 g ai/ha, 0 to 100 scale, 0 is no effect, 100 is complete control
[19] = Postemergence, 500 g ai/ha, 0 to 100 scale (0 no effect, 100 complete control)
[20] = Preemergence, 125 g ai/ha, 0 to 100 scale where 0 is no effect and 100 is complete control
[21] = 500 g ai/ha, 0 to 100 scale (0 no effect, 100 complete control)
[22] = 125 g ai/ha, visual rating on 0 to 100 scale (0 no effect, 100 complete control), approx. 10 days
[23] = Postemergence, 125 g ai/ha, visual rating on 0 to 100 scale (0 no effect, 100 complete control), approx. 10 days

## O=C1NCC(c2cccc(S(F)(F)(F)(F)F)c2)C1C(=O)Nc1ccccc1F (racemic) [Compound 213]
[1]; [15]
  Plant response rating, Foxtail, Giant: 80
[1]; [16]
  Plant response rating, Foxtail, Giant: 80
[1]; Postemergence, 500 g ai/ha
  Foxtail, Giant plant response rating (0 to 100 scale, 0 is no effect, 100 is complete control): 90
[1]; [17]
  Plant response rating, Foxtail, Giant: 90
[2]; [18]
  Plant response rating, Blackgrass: 50
[2]; 500 g ai/ha
  Blackgrass plant response rating (0 to 100 scale, 0 is no effect, 100 is complete control): 60
[3]; [18]
  Plant response rating, Wheat: 0
[3]; 500 g ai/ha
  Wheat plant response rating (0 to 100 scale, 0 is no effect, 100 is complete control): 50
[4]; [15]
  Plant response rating, Ryegrass, Italian: 0
[4]; [16]
  Plant response rating, Ryegrass, Italian: 40
[4]; Postemergence, 500 g ai/ha
  Ryegrass, Italian plant response rating (0 to 100 scale, 0 is no effect, 100 is complete control): 50
[4]; [17]
  Plant response rating, Ryegrass, Italian: 40
[5]; [15]
  Plant response rating, Pigweed: 0
[5]; [16]
  Plant response rating, Pigweed: 0
[5]; Postemergence, 500 g ai/ha
  Pigweed plant response rating (0 to 100 scale, 0 is no effect, 100 is complete control): 0
[5]; [17]
  Plant response rating, Pigweed: 0
[6]; [18]
  Plant response rating, Galium: 0
[6]; 500 g ai/ha
  Galium plant response rating (0 to 100 scale, 0 is no effect, 100 is complete control): 0
[7]; [15]
  Plant response rating, Kochia: 0
[7]; [16]
  Plant response rating, Kochia: 0
[7]; Postemergence, 500 g ai/ha
  Kochia plant response rating (0 to 100 scale, 0 is no effect, 100 is complete control): 0
[7]; [17]
  Plant response rating, Kochia: 0
[8]; [15]
  Plant response rating, Barnyardgrass: 50
[8]; [16]
  Plant response rating, Barnyardgrass: 60
[8]; Postemergence, 500 g ai/ha
  Barnyardgrass plant response rating (0 to 100 scale, 0 is no effect, 100 is complete control): 70
[8]; [17]
  Plant response rating, Barnyardgrass: 80
[9]; 1000 g ai/ha
  Plant response rating, Barnyardgrass: 60
[10]; 1000 g ai/ha
  Plant response rating, Sedge, Umbrella: 0
[11]; [18]
  Plant response rating, Corn: 0
[11]; 500 g ai/ha
  Corn plant response rating (0 to 100 scale, 0 is no effect, 100 is complete control): 50
[12]; [15]
  Plant response rating, Ragweed: 0
[12]; [16]
  Plant response rating, Ragweed: 0
[12]; Postemergence, 500 g ai/ha
  Ragweed plant response rating (0 to 100 scale, 0 is no effect, 100 is complete control): 30
[12]; [17]
  Plant response rating, Ragweed: 0
[13]; 1000 g ai/ha
  Plant response rating, Rice: 0
[14]; 1000 g ai/ha
  Plant response rating, Ducksalad: 85

## O=C1NCC(c2ccc(Cl)c(Cl)c2)C1C(=O)Nc1ccc(F)cc1F (racemic) [Compound 272]
[1]; [16]
  Plant response rating, Foxtail, Giant: 60
[1]; [19]
  Plant response rating, Foxtail, Giant: 80
[1]; [20]
  Plant response rating, Foxtail, Giant: 90
[1]; [17]
  Plant response rating, Foxtail, Giant: 90
[2]; [18]
  Plant response rating, Blackgrass: 0
[2]; [21]
  Plant response rating, Blackgrass: 30
[3]; [22]
  Plant response rating, Wheat: 0
[3]; [21]
  Plant response rating, Wheat: 0
[4]; [23]
  Plant response rating, Ryegrass, Italian: 0
[4]; [19]
  Plant response rating, Ryegrass, Italian: 0
[4]; [20]
  Plant response rating, Ryegrass, Italian: 0
[4]; [17]
  Plant response rating, Ryegrass, Italian: 0
[5]; [23]
  Plant response rating, Pigweed: 0
[5]; [19]
  Plant response rating, Pigweed: 20
[5]; [20]
  Plant response rating, Pigweed: 0
[5]; [17]
  Plant response rating, Pigweed: 30
[6]; [18]
  Plant response rating, Galium: 30
[6]; [21]
  Plant response rating, Galium: 50
[7]; [16]
  Plant response rating, Kochia: 20
[7]; [19]
  Plant response rating, Kochia: 60
[7]; [20]
  Plant response rating, Kochia: 0
[7]; [17]
  Plant response rating, Kochia: 20
[8]; [16]
  Plant response rating, Barnyardgrass: 50
[8]; [19]
  Plant response rating, Barnyardgrass: 80
[8]; [20]
  Plant response rating, Barnyardgrass: 70
[8]; [17]
  Plant response rating, Barnyardgrass: 90
[9]; 500 g ai/ha
  Plant response rating, Barnyardgrass: 20
[10]; 500 g ai/ha
  Plant response rating, Sedge, Umbrella: 0
[11]; [18]
  Plant response rating, Corn: 0
[11]; [21]
  Plant response rating, Corn: 10
[12]; [23]
  Plant response rating, Ragweed: 40
[12]; [19]
  Plant response rating, Ragweed: 0
[12]; [20]
  Plant response rating, Ragweed: 0
[12]; [17]
  Plant response rating, Ragweed: 0
[13]; 500 g ai/ha
  Plant response rating, Rice: 0
[14]; 500 g ai/ha
  Plant response rating, Ducksalad: 100

## O=C1NCC(c2ccc(Cl)c(Cl)c2)C1C(=O)Nc1ccccc1Cl (racemic) [Compound 273]
[1]; [16]
  Plant response rating, Foxtail, Giant: 20
[1]; [19]
  Plant response rating, Foxtail, Giant: 70
[1]; [20]
  Plant response rating, Foxtail, Giant: 90
[1]; [17]
  Plant response rating, Foxtail, Giant: 90
[2]; [18]
  Plant response rating, Blackgrass: 0
[2]; [21]
  Plant response rating, Blackgrass: 0
[3]; [22]
  Plant response rating, Wheat: 0
[3]; [21]
  Plant response rating, Wheat: 0
[4]; [23]
  Plant response rating, Ryegrass, Italian: 0
[4]; [19]
  Plant response rating, Ryegrass, Italian: 0
[4]; [20]
  Plant response rating, Ryegrass, Italian: 0
[4]; [17]
  Plant response rating, Ryegrass, Italian: 0
[5]; [23]
  Plant response rating, Pigweed: 0
[5]; [19]
  Plant response rating, Pigweed: 0
[5]; [20]
  Plant response rating, Pigweed: 0
[5]; [17]
  Plant response rating, Pigweed: 0
[6]; [18]
  Plant response rating, Galium: 0
[6]; [21]
  Plant response rating, Galium: 50
[7]; [16]
  Plant response rating, Kochia: 0
[7]; [19]
  Plant response rating, Kochia: 0
[7]; [20]
  Plant response rating, Kochia: 0
[7]; [17]
  Plant response rating, Kochia: 70
[8]; [16]
  Plant response rating, Barnyardgrass: 10
[8]; [19]
  Plant response rating, Barnyardgrass: 30
[8]; [20]
  Plant response rating, Barnyardgrass: 50
[8]; [17]
  Plant response rating, Barnyardgrass: 80
[9]; 500 g ai/ha
  Plant response rating, Barnyardgrass: 0
[10]; 500 g ai/ha
  Plant response rating, Sedge, Umbrella: 0
[11]; [18]
  Plant response rating, Corn: 0
[11]; [21]
  Plant response rating, Corn: 0
[12]; [23]
  Plant response rating, Ragweed: 0
[12]; [19]
  Plant response rating, Ragweed: 0
[12]; [20]
  Plant response rating, Ragweed: 0
[12]; [17]
  Plant response rating, Ragweed: 0
[13]; 500 g ai/ha
  Plant response rating, Rice: 0
[14]; 500 g ai/ha
  Plant response rating, Ducksalad: 70
